In data set [1] the test system is normal rat kidney (NRK) cells. The data set is described as follows: Uptake of fluorescent probe by NRK cells with or without α2M. Type of data set: cell-based. An excerpt:
(§1) (C) Fluorescently tagged α2M colocalizes strongly with HB-230.
FIG. 15. Uptake of HB-2121.
Puncta of two distinct sizes were observed.
To verify that HB230 internalization was dependent on TG2 activity, HB258 was designed and synthesized as a control probe. This dihydro-analog is otherwise identical to HB230 but lacks its electrophilic warhead and is therefore unable to irreversibly bond to the active site C277 residue of TG2.

A further data set relates to α2M. Put plainly: Co-endocytosis of HB230 and fluorescent α2M in NRK cells. It is filed as cell-based. The note with it: larger, but not smaller, puncta. The procedure: as §1
To obtain definitive evidence for co-endocytosis of HB230 and α2M, a fluorescent batch of α2M was prepared.

The test system of data set [2] is early endosome antigen-1 (EEA-1). Put plainly: Colocalization with early endosomes (EEA-1 antibody staining) in NRK cells. Type of data set: cell-based, rat. The settings on record: co-incubated with α2M, 90 min. The procedure:
(§2) To establish the identity of these large intracellular puncta, NRK cells were transfected with RFP tagged lysosomal-associated membrane protein (LAMP-1). Wild-type and transfected cells were co-incubated with α2M and HB230 for 90 min prior to fixation. To test the hypothesis that the large puncta corresponded to early endosomes, fixed wild-type cells were stained with an antibody against early endosome antigen-1 (EEA-1).

The test system of data set [3] is lysosomal-associated membrane protein (LAMP-1). The data set is described as follows: Colocalization with RFP-tagged LAMP-1 in transfected NRK cells. Type of data set: cell-based, rat. The note with it: co-incubated with α2M, 90 min; large puncta. How it is done: as §2
The test system of the next data set is WT MEFs. Put plainly: Uptake of HB230 and α2M in wild-type MEFs. It is filed as cell-based. The note with it: exogenous TRX and betamethasone, with α2M. The source says:
Low density lipoprotein (LDL) receptor-related protein 1 (LRP-1, a.k.a., (α2M receptor or CD91), a member of the LDL receptor family, is responsible for receptor-mediated endocytosis of α2M. Although this receptor is expressed on the surface of a wide range of cell types within the body, α2M endocytosis by LRP-1 is only triggered when this ubiquitous plasma protein undergoes a conformational change upon binding to its protease or non-protease ligands (Bres and Faissner, 2019). We sought to establish whether endocytosis of the ternary α2M-TG2-peptide complex was mediated by LRP-1 using pharmacologic inhibitors of clathrin mediated endocytosis.

For the next data set, the system named is LRP-1 knockout MEFs. Put plainly: Uptake of HB230 and α2M in LRP-1 knockout MEFs. The settings on record: exogenous TRX and betamethasone, with α2M. Type of data set: cell-based.
The next data set concerns pepsin. Put plainly: Metabolism by pepsin. Type of data set: in vitro ADME. The note with it: role: substrate. The source says: (§3) HB-2121 is analogous to the TG2 inhibitor/probe HB-230 but with one modification; the primary amide C-terminus of HB-230 was replaced with a tertiary dimethyl amide. This change greatly enhances the gastrointestinal stability of the probe.
Another data set concerns trypsin. Put plainly: Metabolism by trypsin. It is filed as in vitro ADME. The settings on record: role: substrate.
From the text: as §3

The test system of a further data set is elastase. The data set is described as follows: Metabolism by elastase. It is filed as in vitro ADME. The settings on record: role: substrate.
From the text: as §3

The test system of the next data set is chymotrypsin. Put plainly: Metabolism by chymotrypsin. The settings on record: role: substrate. Type of data set: in vitro ADME.
From the text: (§4) FIGS. 14A-14B. Metabolic stability of HB-230 and HB-2121. (A) HB-230 is transformed by chymotrypsin to give the C-terminal carboxylic acid. This metabolite is subsequently cleaved by carboxypeptidase to give the tetrapeptide without the terminal phenylalanine. (B) HB-2121 is stable to both chymotrypsin and carboxypeptidase mediated metabolism.
as §3

For a further data set, the system named is carboxypeptidase. The data set is described as follows: Metabolism by carboxypeptidase. It is filed as in vitro ADME. The settings on record: role: substrate, subsequent to chymotrypsin.
From the text: as §4, §3

Data set [4] is described as follows: Endocytosis of fluorescent streptavidin by NRK cells. Type of data set: cell-based, rat. The settings on record: 2 μM HB2110, 1 μM Cy5-conjugated streptavidin. How it is done: FIG. 11: (A) Treating NRK cells with increasing concentrations of HB-3-003 in the presence of fluorescently tagged streptavidin leads to increased internalization of streptavidin after a 90 min treatment. (B) Quantification of dose response.
In order to determine the ability of this pathway to clear specifically targeted proteins from the extracellular environment, we synthesized a pentapeptide harboring the electrophilic warhead and a PEG-4 biotin conjugated to the DAB substituted Y amino acid (HB2110). Streptavidin is expected to bind to the biotin arm of the probe, and thus be endocytosed along with the rest of the complex as previously described. To test this hypothesis NRK cells were treated with 2 μM HB2110 and 1 μM Cy5-conjugated streptavidin.
We also synthesized the equivalent pentapeptide harbouring a Gln residue in the place of the electrophilic warhead, with biotin conjugated to the DAB substituted Y amino acid through a PEG linker (HB3-3). We then assed the ability of cells to endocytose fluorescent streptavidin in the presence of HB3-3 and α2M.

The structures appear in SMILES notation. Starred links: 1 amine or outer side, 2 acyl side, 3 side chain; linkers in the order of their positions; H or OH if unused. Non-standard residues stand in square brackets, D forms with d. Residues, ends and D or L forms follow the SMILES beside them. Groups on a side chain read outwards from the residue. *: point of attachment. Biotin = O=C1N[C@H]2[C@H](CS[C@H]2CCCCC(=O)*)N1; X1 = CN(C)C(=O)/C=C/CC[C@H](N[*:1])C(=O)[*:2]; PEG4 = NCCOCCOCCOCCOCCC(=O)O; Dab = NCC[C@H](N)C(=O)O

With `CC(=O)N1CCC[C@H]1C(=O)N[C@@H](CC/C=C/C(=O)N(C)C)C(=O)N[C@@H](CCNC(=O)CCCCC[N+]1=C(/C=C/C=C/C=C2/N(C)c3ccc(S(=O)(=O)O)cc3C2(C)C)C(C)(C)c2cc(S(=O)(=O)[O-])ccc21)C(=O)N1CCC[C@H]1C(=O)N[C@@H](Cc1ccccc1)C(N)=O` [HB-230, AcPro-HWE-(Dab-SCy5)-Pro-Phe], the “uptake by NRK cells in the presence of α2M” value in data set [1] (100 μg/mL of α2M) is given as “robustly taken up”. In data set [1] (1 TM (so in the source) exogenous probe, 90 min), the “uptake by NRK cells” value was “robust uptake”. Besides, the “uptake by NRK cells on supplementation with α2M” value in [1] (NRK cells supplemented with increasing α2M) is “strong dose-dependent increase in uptake of HB230 up to ~100 μg/ml”. The “overlap with fluorescent α2M” value with α2M is “strong overlap”. In addition, the “localization relative to EEA-1” value in data set [2] is “appear in distinct sub-cellular compartments for the most part”. Further, the “co-localization with RFP-tagged LAMP-1” value in data set [3] was “strongly co-localizes with RFP-tagged LAMP-1 in the large puncta”. Also, the “internalization of ternary complex” value in the data set on WT MEFs was “internalized the ternary complex”. The “formation of large co-stained puncta” value in the data set with LRP-1 knockout MEFs is listed as “marked defect in their ability to form large co-stained puncta”. In addition, the “resistance to metabolism by pepsin” value in the data set on pepsin is “resistance to metabolism”. In addition, in the data set with trypsin, the “resistance to metabolism by trypsin” value was “resistance to metabolism”. In addition, in the data set on elastase, the “resistance to metabolism by elastase” value is listed as “resistance to metabolism”. For the same compound, in the data set on chymotrypsin, the metabolism by chymotrypsin result is listed as “enzymatic deamidation at the C-terminus (CONH2→CO2H)”. For the same compound, the metabolism by carboxypeptidase result in the data set on carboxypeptidase is “subsequent cleavage of the C-terminal phenylalanine”.

In the case of `CC(=O)N1CCC[C@H]1C(=O)N[C@@H](CC/C=C/C(=O)N(C)C)C(=O)N[C@@H](CCNC(=O)CCOCCOCCOCCOCCNC(=O)CCCC[C@@H]1SC[C@@H]2NC(=O)N[C@@H]21)C(=O)N1CCC[C@H]1C(=O)N[C@@H](Cc1ccccc1)C(N)=O` [HB-2110] (Ac-P[X1][Dab]([PEG4-Biotin])PF-NH2), the “colocalization of Cy5-streptavidin with α2M” value in [4] is on record as “found to colocalize with α2M in the lysosomal compartment”.

The values are drawn from patent publication US20260364210A1, “COMPOSITIONS AND METHODS FOR TRANSGLUTAMINASE-MEDIATED ENDOCYTOSIS” (The Board of Trustees of the Leland Stanford Junior …, priority 2022, published 2026).
